# Experimental data from patent US20240377399A1, “COMPOSITIONS AND METHODS FOR MODULATING HYDROXYLATION OF ACC2 BY PHD3” (President and Fellows of Harvard College, priority 2015, published 2024).
# “Also recorded” adds a separate entry of the source.
# What was measured:
# K562 leukemia cells = experiment: Leukemia cell viability by PI staining after 96 hr drug treatment; assay type: cell-based, human; conditions: high-PHD3 CML line, 96 hr treatment, ranolazine 0-500 μM or etomoxir 0-200 μM
# Description: (§1) Drug treatment and PI staining. Cells were treated 96 hr with a range of doses of etomoxir (Cayman Chemical) or ranolazine dihydrochloride (VWR/Selleck Chemicals) or vehicle. Fresh etomoxir was spiked in at 24, 48 and 72 hr. Fresh ranolazine was spiked in at 48 hr. Dosing schedules were determined by identifying the minimum number of times drug must be re-added to observe an effect on cell viability. Cell viability at 96 hr was determined by staining cells with 1 µg/ml propidium iodide (Sigma) in PBS and flow cytometry on the BD LSR-II analyzer.
# low-PHD3 leukemia cells = experiment: as above; assay type: cell-based, human; conditions: 96 hr treatment, ranolazine 0-500 μM or etomoxir 0-200 μM
# Description: as §1
# MEGO1 = experiment: as above; assay type: cell-based, human; conditions: high-PHD3 CML cell line, high dose of ranolazine, compared to low-PHD3 AML cells
# Description: as §1
# recombinant PHD3 = recombinant PHD3 (Homo sapiens, UniProt Q9H6Z9); experiment: In vitro hydroxylation assay with ACC2 peptides; assay type: biochemical; conditions: 12.5 nmol synthetic peptide; radioactivity-based, [14C]CO2 release
# Description: In vitro hydroxylation assay. The in vitro hydroxylation assay was modified from a previously described assay based on the fact that hydroxylation by PHDs results in decarboxylation of […]-ketoglutarate to form carbon dioxide. Briefly, […] reactions were performed in glass vials sealed with rubber stoppers and parafilm wax. Reaction mixtures containing 12.5 nmol synthetic peptide (Peptide 2.0), 50 mM Tris/HCl (pH 7.8), 2 mg/ml BSA, 4200 U/ml catalase, 0.1 mM DTT, 2 mM ascorbate, 500 μM FeSO4·7H2O, 0.02 μmol [1-^14C][…]-ketoglutarate (Perkin Elmer) and 1.2 μg recombinant PHD3 were incubated at 370 for 30 min. Reactions were stopped by injection of 0.25 ml of 1 M KH2PO4 (pH 5) into vials. Vials were agitated on slow speed for 30 min at room temperature to allow capture of [^14C]CO2 onto solubilized Whatman paper positioned at the top of the vials. CPM were measured by scintillation counts on filter paper.
# 293T cells = experiment: Palmitate oxidation (FAO assay); assay type: cell-based, human; conditions: low glucose, serum-free medium supplemented 5 mM for 6 h; PHD3-dependent
# Description: FIG. 10C is a photograph of an immunoblot showing 293T cells stably expressing shRNA against PHD3 or non-targeting control were incubated 12 h in high or low nutrient media prior to analyzing ACC hydroxylation by IP and immunoblot. FIG. 10D is a photograph of an immunoblot showing ACC hydroxylation dynamically responds to cellular nutrient cues. WT immortalized MEFs were incubated in high (4.5 g/L glucose DMEM with serum) or low (1 g/L glucose DMEM without serum) nutrient medium for 6 h, or in low nutrient medium for 6 h followed by adding back high nutrient medium for 5 or 10 min. ACC was immunoprecipitated in lysis buffer containing the PHD inhibitor DMOG (1 mM) to minimize further hydroxylation in the lysis buffer. Hydroxylation was detected by immunoblot. FIG. 10E is a bar graph showing the impact of PHD3 knockdown on the ability of immortalized MEFs to modulate palmitate oxidation levels in response to low or high nutrient medium (n=3). […] FIG. 10G is a bar graph showing short, medium and long chain acylcarnitine levels as measured by metabolomics analysis of 293T cells grown in high nutrient medium following stable knockdown with shRNA against PHD3 or control. […]
# MOLM14 cells [1] = experiment: Colony formation assay (soft agar); assay type: cell-based, human; conditions: for colony formation (growth): PHD3-overexpressing MOLM14, metformin 1 mM, CFU counted 8 days after plating
# Source text: FIG. 12B, Growth curves of MOLM14 and THP1 cells stably overexpressing vector or PHD3 (n=3). FIG. 12C, ATP CellTiter-Glo analysis in MOLM14 and THP1 cells stably overexpressing vector or PHD3 (n=4). FIG. 12D, Colony formation assay with MOLM14 and THP1 cells stably overexpressing vector or PHD3. Colony forming units (CFU) were counted 8 days after plating MOLM14 and 20 days after plating THP1 (n=3). FIG. 12E, Representative images from colony formation assays with MOLM14 or THP1 cells stably overexpressing vector or PHD3. MOLM14 colonies were imaged on day 8 and THP1 colonies imaged on day 20 using an inverted microscope (Nikon Eclipse Ti-U) at 200× magnification and SPOT camera software 5.0. FIG. 12F, Immunoblot showing HA-PHD3 overexpression in K562 cells. FIG. 12G and FIG. 12H, Colony formation assay and representative images from K562 cells stably expressing PHD3 or vector. CFU were counted and imaged 10 days after plating (n=3). […] Cells were treated with S2E (50 μM, Sigma), metformin (1 mM, Sigma) or vehicle following viral infection with PHD3 and throughout the duration of the experiment. Infected cells were selected with puromycin. Following FACS to collect PI-negative cells, 8000 cells were plated per well of a 96-well plate, and cell number at 72 h was determined by cell counting (n=3). […] Colony formation was assessed in MOLM14 cells stably overexpressing vector or PHD3 in the presence or absence of metformin (Met, 1 mM). CFU were counted 8 days after plating (n=2). FIG. 12K, qPCR analysis of PHD3 gene expression in primary human CD34+ cells from bone marrow filtrate of a healthy donor or AML patient samples (690a, 2093 and 2266). PPIA was used as a reference gene. FIG. 12L, ATP CellTiter-Glo analysis of cell viability in AML patient samples following stable overexpression of empty vector or PHD3 (n=4).
# MOLM14 cells [2] = experiment: Cell growth (cell counting at 72 h) following PHD3 overexpression; assay type: cell-based, human; conditions: PHD3-overexpressing MOLM14; S2E 50 μM or metformin 1 mM
# Source text: FIG. 12B, Growth curves of MOLM14 and THP1 cells stably overexpressing vector or PHD3 (n=3). FIG. 12C, ATP CellTiter-Glo analysis in MOLM14 and THP1 cells stably overexpressing vector or PHD3 (n=4). FIG. 12D, Colony formation assay with MOLM14 and THP1 cells stably overexpressing vector or PHD3. Colony forming units (CFU) were counted 8 days after plating MOLM14 and 20 days after plating THP1 (n=3). FIG. 12E, Representative images from colony formation assays with MOLM14 or THP1 cells stably overexpressing vector or PHD3. MOLM14 colonies were imaged on day 8 and THP1 colonies imaged on day 20 using an inverted microscope (Nikon Eclipse Ti-U) at 200× magnification and SPOT camera software 5.0. FIG. 12F, Immunoblot showing HA-PHD3 overexpression in K562 cells. FIG. 12G and FIG. 12H, Colony formation assay and representative images from K562 cells stably expressing PHD3 or vector. CFU were counted and imaged 10 days after plating (n=3). […] Following FACS to collect PI-negative cells, 8000 cells were plated per well of a 96-well plate, and cell number at 72 h was determined by cell counting (n=3). […] Colony formation was assessed in MOLM14 cells stably overexpressing vector or PHD3 in the presence or absence of metformin (Met, 1 mM). CFU were counted 8 days after plating (n=2). […]
# MOLM14 cells [3] = experiment: Palmitate oxidation (FAO assay); assay type: cell-based, human; conditions: S2E 50 μM for 3 days; 3 h incubation with radiolabeled palmitate
# Description: FIG. 15 includes 10 panels, FIGS. 15A-J, showing PHD3 modulation in leukemia cell lines. FIG. 15A, PHD3 expression in MOLM14 and THP1 cells following stable overexpression of vector or PHD3 (n=3). FIG. 15B, Palmitate oxidation in HepG2 cells treated with etomoxir during the 2 h FAO assay (100 μM, n=3). FIG. 15C and FIG. 15D, PHD3 expression and growth curves in K562 cells following stable overexpression of PHD3 or vector (n=3). FIG. 15E, Growth curves of K562 cells stably expressing shRNA against PHD3 or control (n=3). FIG. 15F, Colony formation assay with K562 cells stably expressing shRNA against PHD3 or non-silencing control. Colony forming units (CFU) were counted 10 days after plating (n=2). FIG. 15G, Representative images from colony formation assays with K562 cells stably expressing shRNA against PHD3 or non-silencing control. Colonies were imaged on day 10 using an inverted microscope (Nikon Eclipse Ti-U) at 200× magnification and SPOT camera software 5.0. […] MOLM14 cells were incubated with S2E (50 μM) or vehicle for 3 days. FAO was measured following 3 h incubation with radiolabeled palmitate in the presence of S2E or vehicle. FIG. 151, PHD3 expression in MOLM14 cells following stable overexpression of vector or PHD3 (n=3). […]
# ACC2 = biological target: T1, ACC2 (Homo sapiens, UniProt O00763); experiment: ACC activity assay in 293T cell lysates; assay type: biochemical; conditions: lysates overexpressing ACC2; citrate 2 mM
# T1 construct: expressed in transfected cells; host or cells: 293T cells, whole-cell lysate (50 ug protein per reaction)
# Description: ACC activity assay. Reactions were performed as previously described, with the exception of using 16.7 mM MgCl2 instead. 50 μg protein lysate was used for each reaction. Following addition of 1 N HCl to quench reactions and convert remaining [^14C]bicarbonate (American Radiolabeled Chemicals) to CO2, reactions were evaporated 2 hours at 600 and 15 min at 850 in a thermo shaker. ACC activity was calculated as incorporation of [^14C]bicarbonate into [^14C]malonyl CoA (the acid and heat stable product) as measured by scintillation counting.
# KU812 = experiment: Leukemia cell viability by PI staining after 96 hr drug treatment; assay type: cell-based, human; conditions: low-PHD3 CML cell line; 96 hr treatment with etomoxir
# Description: as §1
# HepG2 cells = experiment: Palmitate oxidation (FAO assay); assay type: cell-based, human; conditions: etomoxir 100 μM during the 2 h FAO assay; figure printed for PHD3 overexpression, etomoxir stated to achieve a similar level
# Description: Fatty acid oxidation. For FAO assays, cells in 12 well-plates were pre-incubated with 100 µM palmitate or hexanoate and 1 mM carnitine for 4 hr in serum-free low glucose media, unless otherwise noted. Cells were then changed to 600 l media containing 1 μCi [9,10(n)-^3H]palmitic acid (GE Healthcare) or 1.8 μCi n-[5,6-^3H]hexanoic acid (American Radiolabeled Chemicals) and 1 mM carnitine for 2 hr. The medium was collected and eluted in columns packed with DOWEX 1X2-400 ion exchange resin (Sigma) to analyze the released ^3H20, formed during oxidation of [3H]palmitate. FAO in complete media indicates media including serum was used for pre-incubation and FAO analysis. Basal FAO indicates cells were not pre-incubated with fatty acids prior to FAO analysis. For all FAO experiments, counts per minute (CPM) were normalized to protein content in cell lysates.
# Chain of recombinant PHD3 (Q9H6Z9 whole entry): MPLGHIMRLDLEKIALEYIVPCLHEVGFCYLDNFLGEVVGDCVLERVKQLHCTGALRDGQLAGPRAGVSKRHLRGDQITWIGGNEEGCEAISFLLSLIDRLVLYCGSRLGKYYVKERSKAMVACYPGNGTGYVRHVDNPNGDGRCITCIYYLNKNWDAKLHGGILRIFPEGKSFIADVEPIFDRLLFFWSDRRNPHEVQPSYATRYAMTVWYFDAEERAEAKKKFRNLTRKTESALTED
# T1 sequence (O00763 whole entry): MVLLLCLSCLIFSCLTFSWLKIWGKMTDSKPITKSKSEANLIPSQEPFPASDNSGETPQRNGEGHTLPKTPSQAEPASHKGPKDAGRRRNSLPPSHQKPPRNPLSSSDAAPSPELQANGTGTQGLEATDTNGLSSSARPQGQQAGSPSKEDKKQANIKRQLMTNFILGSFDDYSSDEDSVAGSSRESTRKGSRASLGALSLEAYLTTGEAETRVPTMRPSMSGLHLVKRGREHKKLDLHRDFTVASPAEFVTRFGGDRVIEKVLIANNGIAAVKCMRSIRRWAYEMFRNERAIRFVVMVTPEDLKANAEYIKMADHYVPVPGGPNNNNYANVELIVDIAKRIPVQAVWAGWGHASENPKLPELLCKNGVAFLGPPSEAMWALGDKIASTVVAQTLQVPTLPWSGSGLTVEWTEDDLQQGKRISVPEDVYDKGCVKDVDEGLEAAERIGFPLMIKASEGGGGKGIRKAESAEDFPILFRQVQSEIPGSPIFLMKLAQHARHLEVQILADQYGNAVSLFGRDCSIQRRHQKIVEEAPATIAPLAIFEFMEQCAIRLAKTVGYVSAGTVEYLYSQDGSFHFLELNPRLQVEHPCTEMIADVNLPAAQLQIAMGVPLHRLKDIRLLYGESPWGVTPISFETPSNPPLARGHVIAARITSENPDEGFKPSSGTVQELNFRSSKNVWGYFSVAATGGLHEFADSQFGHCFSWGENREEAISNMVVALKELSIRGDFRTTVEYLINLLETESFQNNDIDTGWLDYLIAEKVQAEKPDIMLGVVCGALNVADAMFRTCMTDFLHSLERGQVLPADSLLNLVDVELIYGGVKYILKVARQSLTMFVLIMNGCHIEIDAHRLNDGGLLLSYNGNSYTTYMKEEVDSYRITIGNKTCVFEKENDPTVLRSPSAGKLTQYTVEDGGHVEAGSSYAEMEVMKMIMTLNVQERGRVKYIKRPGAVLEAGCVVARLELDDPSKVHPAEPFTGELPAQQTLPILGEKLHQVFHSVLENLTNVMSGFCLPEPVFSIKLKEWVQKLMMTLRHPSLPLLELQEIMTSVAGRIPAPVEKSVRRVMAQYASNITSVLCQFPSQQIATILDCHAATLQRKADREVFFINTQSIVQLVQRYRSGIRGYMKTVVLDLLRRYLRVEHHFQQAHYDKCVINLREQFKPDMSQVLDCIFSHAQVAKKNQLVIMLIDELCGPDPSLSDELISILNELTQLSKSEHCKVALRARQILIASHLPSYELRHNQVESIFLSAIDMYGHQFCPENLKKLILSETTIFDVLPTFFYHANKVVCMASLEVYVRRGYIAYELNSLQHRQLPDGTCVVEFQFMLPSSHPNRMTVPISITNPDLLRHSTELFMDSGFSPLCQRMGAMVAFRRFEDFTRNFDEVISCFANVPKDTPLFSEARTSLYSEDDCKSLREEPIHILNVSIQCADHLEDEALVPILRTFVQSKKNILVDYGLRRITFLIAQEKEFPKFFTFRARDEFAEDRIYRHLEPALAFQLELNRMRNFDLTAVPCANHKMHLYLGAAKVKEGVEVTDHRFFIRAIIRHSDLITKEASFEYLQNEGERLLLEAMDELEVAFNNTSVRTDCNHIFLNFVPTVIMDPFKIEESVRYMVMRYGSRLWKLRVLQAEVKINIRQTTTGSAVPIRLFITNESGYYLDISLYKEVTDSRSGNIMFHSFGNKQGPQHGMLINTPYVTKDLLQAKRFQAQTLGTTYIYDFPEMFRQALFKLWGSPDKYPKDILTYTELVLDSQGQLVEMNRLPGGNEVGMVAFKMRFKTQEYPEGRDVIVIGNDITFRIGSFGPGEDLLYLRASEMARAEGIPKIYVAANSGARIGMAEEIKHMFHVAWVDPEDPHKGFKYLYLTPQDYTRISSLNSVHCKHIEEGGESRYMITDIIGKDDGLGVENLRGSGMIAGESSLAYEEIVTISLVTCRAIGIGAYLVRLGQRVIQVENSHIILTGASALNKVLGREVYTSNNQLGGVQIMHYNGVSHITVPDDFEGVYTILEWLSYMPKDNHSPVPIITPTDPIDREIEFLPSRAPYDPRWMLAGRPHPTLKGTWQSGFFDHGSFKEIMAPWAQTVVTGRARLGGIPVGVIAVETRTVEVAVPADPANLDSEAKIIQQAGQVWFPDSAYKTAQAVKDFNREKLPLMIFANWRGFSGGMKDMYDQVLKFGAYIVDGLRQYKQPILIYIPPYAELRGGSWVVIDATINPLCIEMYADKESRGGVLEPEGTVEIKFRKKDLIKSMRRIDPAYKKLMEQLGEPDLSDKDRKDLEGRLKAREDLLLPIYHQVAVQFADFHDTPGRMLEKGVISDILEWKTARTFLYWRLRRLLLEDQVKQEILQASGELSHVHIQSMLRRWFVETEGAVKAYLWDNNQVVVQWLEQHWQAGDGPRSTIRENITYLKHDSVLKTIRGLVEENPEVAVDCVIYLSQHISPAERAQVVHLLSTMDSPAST
compound,measurement,setting,value
COc1ccccc1OCC(O)CN1CCN(CC(=O)Nc2c(C)cccc2C)CC1 (centres unmarked) [ranolazine],cell viability,K562 leukemia cells,viability was largely maintained
same,cell viability,low-PHD3 leukemia cells,drastically reduced cell viability
same,sensitivity (viability),MEGO1,less sensitive
ARLELDDPSKVHPAE,hydroxylation by recombinant PHD3,recombinant PHD3,not
COC(=O)CCC(=O)C(=O)OC [dimethyl ketoglutarate],palmitate oxidation,293T cells,repressed palmitate oxidation
CN(C)C(=N)N=C(N)N [metformin],colony formation (growth),MOLM14 cells [1],improved growth; also recorded: partially rescues
same,colony formation (growth),MOLM14 cells [1]; listed as Metformin,partially blocks the growth inhibitory effects
same,cell growth in soft agar,"MOLM14 cells [1]; metformin on its own, 1 mM",impaired cell growth
same,cell growth at 72 h,MOLM14 cells [2],trend toward rescued growth
CC(C)(C)c1ccc(N2C[C@@H](COc3ccc(C(=O)O)cc3)CC2=O)cc1 [S2E],palmitate oxidation (FAO),MOLM14 cells [3],increases palmitate oxidation; also recorded: amplified FAO
same,cell growth at 72 h,MOLM14 cells [2],restores cell growth; also recorded: rescued Molm14 cell growth
ERIGFPLMIKASEGGGGK [ACC2 peptide containing P450],hydroxylation by recombinant PHD3,recombinant PHD3,shown to hydroxylate
O=C(O)CC(O)(CC(=O)O)C(=O)O [citrate],ACC activity,ACC2,activated
AGQVWFPDSAYKTAQ [peptide containing P2131],hydroxylation by recombinant PHD3,recombinant PHD3,not
CCOC(=O)[C@@]1(CCCCCCOc2ccc(Cl)cc2)CO1 [etomoxir],sensitivity (viability),KU812,sensitive
same,cell viability,low-PHD3 leukemia cells,substantial cell death
same,repression of FAO (palmitate oxidation),HepG2 cells,over 50%
